This note sets out measurements from patent publication US9199943B2, “2-(poly-substituted aryl)-6-amino-5-halo-4-pyrimidinecarboxylic acids and their use as herbicides” (Dow AgroSciences, LLC., priority 2006, dated 2015).

Molecules are shown by their SMILES.

What all share (assay type): in vivo
Assay [1] has as its system PAPRH = Papaver rhoeas. The assay is described as follows: Postemergence herbicidal activity in cereal crops, Papaver rhoeas. The conditions noted are these: post-emergence, 480 h, post-emergent, after 20-22 days; for pest or weed control at 35 g/ha: 35 g ai/ha; for pest or weed control at 17.5 g/ha: 17.5 g ai/ha; for pest or weed control at 70 g/ha: 70 g ai/ha. Here is the method:
(§1) Seeds of the desired test plant species were planted in Sun Gro MetroMix® 306 planting mixture, which typically has a pH of 6.0 to 6.8 and an organic matter content of about 30 percent, in plastic pots with a surface area of 103.2 square centimeters. When required to ensure good germination and healthy plants, a fungicide treatment and/or other chemical or physical treatment was applied. The plants were grown for 7-36 days in a greenhouse with an approximate 14 hour photoperiod which was maintained at about 18° C. during the day and 17° C. during the night. Nutrients and water were added on a regular basis and supplemental lighting was provided with overhead metal halide 1000-Watt lamps as necessary. The plants were employed for testing when they reached the second or third true leaf stage.
(§2) A weighed amount, determined by the highest rate to be tested, of each test compound was placed in a 25 mL glass vial and was dissolved in 8 mL of a 97:3 v/v mixture of acetone and DMSO to obtain concentrated stock solutions. […] The concentrated stock solutions obtained were diluted with 16 mL of an aqueous mixture containing acetone, water, isopropyl alcohol, DMSO, Agri-dex crop oil concentrate, and Triton X-77 surfactant in a 64.7:26.0:6.7:2.0:0.7:0.01 v/v ratio to obtain spray solutions containing the highest application rates. Additional application rates were obtained by serial dilution of 12 mL of the high rate solution into a solution containing 4 mL of 97:3 v/v mixture of acetone and DMSO and 8 mL of an aqueous mixture containing acetone, water, isopropyl alcohol, DMSO, Agri-dex crop oil concentrate, and Triton X-77 surfactant in a 48.5:39.0:10.0:1.5:1.0:0.02 v/v ratio to obtain ½×, ¼×, ⅛× and 1/16× rates of the high rate. Compound requirements are based upon a 12 mL application volume at a rate of 187 L/ha. Formulated compounds were applied to the plant material with an overhead Mandel track sprayer equipped with a 8002E nozzles calibrated to deliver 187 L/ha over an application area of 0.503 square meters at a spray height of 18 inches (43 cm) above average plant canopy height. Control plants were sprayed in the same manner with the blank.
(§3) The treated plants and control plants were placed in a greenhouse as described above and watered by sub-irrigation to prevent wash-off of the test compounds. After 20-22 days, the condition of the test plants as compared with that of the untreated plants was determined visually and scored on a scale of 0 to 100 percent where 0 corresponds to no injury and 100 corresponds to complete kill.

Assay [2] has as its system SCPJU = Scirpus juncoides. The assay is described as follows: Herbicidal activity in transplanted paddy rice, Scirpus juncoides. The note with it: Schoenoplectiella juncoides, 480 h, water-injected paddy, after 20-22 days; for pest or weed control at 17.5 g/ha: 17.5 g ai/ha; for pest or weed control at 70 g/ha: 70 g ai/ha; for pest or weed control at 140 g/ha: 140 g ai/ha; for pest or weed control at 35 g/ha: 35 g ai/ha. The procedure:
Weed seeds or nutlets of the desired test plant species were planted in puddled soil (mud) prepared by mixing a non-sterilized mineral soil (28 percent silt, 18 percent clay, and 54 percent sand, with a pH of about 7.3 to 7.8 and an organic matter content of about 1.0 percent) and water at a ratio of 100 kg of soil to 19 L of water. The prepared mud was dispensed in 250 mL aliquots into 480 mL non-perforated plastic pots with a surface area of 91.6 square centimeters leaving a headspace of 3 centimeters in each pot. Rice seeds were planted in Sun Gro MetroMix® 306 planting mixture, which typically has a pH of 6.0 to 6.8 and an organic matter content of about 30 percent, in plastic plug trays. Seedlings at the second or third leaf stage of growth were transplanted into 650 mL of mud contained in 960 mL non-perforated plastic pots with a surface area of 91.6 square centimeters 4 days prior to herbicide application. The paddy was created by filling the 3 centimeter headspace of the pots with water. When required to ensure good germination and healthy plants, a fungicide treatment and/or other chemical or physical treatment was applied. The plants were grown for 4-14 days in a greenhouse with an approximate 14 hour photoperiod which was maintained at about 29° C. during the day and 26° C. during the night. Nutrients were added as Osmocote (17:6:10, N:P:K+minor nutrients) at 2 g (grams) per cup. Water was added on a regular basis to maintain the paddy flood, and supplemental lighting was provided with overhead metal halide 1000-Watt lamps as necessary. The plants were employed for testing when they reached the second or third true leaf stage. A weighed amount, determined by the highest rate to be tested, of each test compound was placed in a 120 mL glass vial and was dissolved in 20 mL of acetone to obtain concentrated stock solutions. […] The concentrated stock solutions obtained were diluted with 20 mL of an aqueous mixture containing 0.01% Tween 20 (v/v). Application rates of ½×, ¼×, ⅛× and 1/16× of the high rate were obtained by injecting an appropriate amount of the stock solution into the aqueous layer of the paddy. Control plants were treated in the same manner with the solvent blank. The treated plants and control plants were placed in a greenhouse as described above and water was added as needed to maintain a paddy flood. After 20-22 days, the condition of the test plants as compared with that of the untreated plants was determined visually and scored on a scale of 0 to 100 percent where 0 corresponds to no injury and 100 corresponds to complete kill.

The test system of assay [3] is TRZAS = wheat (Triticum aestivum). Nature of the assay: Postemergence herbicidal activity in cereal crops, wheat. The conditions noted are these: post-emergence, 480 h, post-emergent, wheat (crop), after 20-22 days; for pest or weed control at 35 g/ha: 35 g ai/ha; for pest or weed control at 17.5 g/ha: 17.5 g ai/ha; for pest or weed control at 70 g/ha: 70 g ai/ha. The procedure:
as §1, §2, §3

Turning to `CCOc1c(Cl)ccc(-c2nc(N)c(Cl)c(C(=O)OC)n2)c1F` [Compound 1, 6-amino-5-chloro-2-(4-chloro-3-ethoxy-2-fluorophenyl)-pyrimidine-4-carboxylic acid methyl ester], the pest or weed control (usually the degree to which the test organism was suppressed or injured, in per cent) at 35 g/ha in assay [1] came to 100%; in assay [3], 0%. In addition, in assay [2], the pest or weed control at 17.5 g/ha was determined as 50%.

As to `COC(=O)c1nc(-c2c(F)cc(Cl)c(OC)c2F)nc(N)c1Cl` [Compound 2, 6-amino-5-chloro-2-(4-chloro-2,6-difluoro-3-methoxy-phenyl)pyrimidine-4-carboxylic acid methyl ester], the pest or weed control at 35 g/ha turned out to be 100% in assay [1] and 0% in assay [3]. In addition, in assay [2], the pest or weed control at 70 g/ha was determined as 20%.

With `COC(=O)c1nc(-c2ccc(Cl)c(OC)c2F)nc(N)c1Cl` [Compound 3, 6-amino-5-chloro-2-(4-chloro-2-fluoro-3-methoxyphenyl)-pyrimidine-4-carboxylic acid methyl ester], the pest or weed control at 17.5 g/ha in assay [1] was found to be 100%; in assay [2], 80%; in assay [3], 0%.

On to `COC(=O)c1nc(-c2ccc(Cl)c(OC)c2Cl)nc(N)c1Cl` [Compound 6, 6-Amino-5-chloro-2-(2,4-dichloro-3-methoxyphenyl)pyrimidine-4-carboxylic acid methyl ester], for which the values for the pest or weed control at 70 g/ha in assay [1] and in assay [3] were 99% and 10%, respectively.

In the case of `COC(=O)c1nc(-c2ccc(Cl)c(C(F)F)c2F)nc(N)c1Cl` [Compound 7, 6-Amino-5-chloro-2-(4-chloro-3-difluoromethyl-2-fluorophenyl)pyrimidine-4-carboxylic acid methyl ester], the results for the pest or weed control at 17.5 g/ha in assay [1] and in assay [3] were 95% and 15%, respectively. Besides, the pest or weed control at 140 g/ha in assay [2] is 90%.

As for `COC(=O)c1nc(-c2ccc(Cl)c(N(C)C)c2F)nc(N)c1Cl` [Compound 8, 6-Amino-5-chloro-2-(4-chloro-3-dimethylamino-2-fluorophenyl)pyrimidine-4-carboxylic acid methyl ester], the results for the pest or weed control at 35 g/ha in assay [1], in assay [2] and in assay [3] were 100%, 10% and 15%, respectively.

In the case of `COC(=O)c1nc(-c2ccc3c(c2F)OCO3)nc(N)c1Cl` [Compound 9, 6-Amino-5-chloro-2-(4-fluorobenzo[1,3]dioxol-5-yl)pyrimidine-4-carboxylic acid methyl ester], the pest or weed control at 70 g/ha in assay [1] came to 40%; in assay [3], 15%. The pest or weed control at 35 g/ha in assay [2] is 70%.

Regarding `COC(=O)c1nc(-c2ccc(Cl)c(OCC(F)F)c2F)nc(N)c1Cl` [Compound 10, 6-Amino-5-chloro-2-[4-chloro-3-(2,2-difluoroethoxy)-2-fluorophenyl]-pyrimidine-4-carboxylic acid methyl ester], the pest or weed control at 70 g/ha in assay [1] is 95%; in assay [3], 5%. Also, the pest or weed control at 140 g/ha in assay [2] was found to be 40%.

As to `COC(=O)c1nc(-c2ccc(Cl)c(OC)c2F)nc(N)c1Br` [Compound 13, 6-amino-5-bromo-2-(4-chloro-2-fluoro-3-methoxyphenyl)-pyrimidine-4-carboxylic acid methyl ester], the pest or weed control at 17.5 g/ha in assay [1] amounted to 100%; in assay [3], 0%. The molecule further displayed a pest or weed control at 70 g/ha in assay [2] of 60%.
